According to patent publication US4550186A, “Binuclear copper (II) carboxylates formed from amine-carboxyboranes” (Duke University, priority 1983, dated 1985):

Experiments:
[1] = system: Acetyl CoA synthetase; assay: In vivo liver enzyme study: acetyl CoA synthetase; design: species or system mouse; details: CF1 liver after 16 days i.p.
Experimental: (§1) In vitro enzymatic studies were determined using 10% homogenates of CF1 male mouse liver with 50-200 μM of test drugs. In vivo enzymatic studies were determined using 10% homogenates of liver from CF1 male mice obtained after administering the agents for 16 days at a dose ranging from 2.5-20 mg/kg/day intraperitoneally. The liver homogenates for both in vitro and in vivo studies were prepared in 0.25M sucrose and 0.001M (ethylenedinitrilo)tetraacetic acid. Acetyl coenzyme A synthetase and adenosine triphosphate dependent citrate lyase activities were determined spectrophotometrically at 540 nm as the hydroxylamate of acetyl coenzyme A formed after 30 min at 37° C. Mitochondrial citrate exchange was determined by the procedure of Robinson et al [Eur. J. Biochem., 216, 63 (1970)] using ^14 C-sodium bicarbonate (41 mCi/mmol) incorporated into mitochondrial ^14 C-citrate after isolating rat mitochondria (9000 g×10 min) from the homogenates. The exchanges of the ^14 C-citrate were determined after incubating the mitochondrial fraction which was loaded with labeled citrate and test drugs for 10 min. Then the radioactivity was measured in the mitochondrial and supernantant fractions in scintillation fluid and expressed as a percentage. Cholesterol side chain oxidation was determined by the method of Kritchevsky and Tepper [Artherosclerosis, 18, 93 (1973)] using (26-^14 C) cholesterol (50 mCi/mmol) and mitochondria isolated from rat liver homogenates. […] Fatty acid synthetase activity was determined by the method of Brady et al [J. Biol. Chem., 235, 3093 (1960)] using [2-^14 C] malonyl-coenzyme A (37.5 mCi/mmol) which was incorporated into newly synthesized fatty acids that were extracted with ether and counted. Acyl transferase activity was determined with glycerol-3phosphate [L-2-^3 H(N)] […] HCl and counted. Phosphatidate phosphohydrolase activity was measured as the inorganic phosphate released after 30 min from phosphatidic acid by the method of Mavis et al [J. Lipid Res., 19, 467 (1978)]. […]

[2] = system: protein synthesis of Ehrlich ascites cells; assay: In vitro whole cell incorporation: protein synthesis; type: cell-based, mouse; details: preliminary, 60 min, read-out: ID50, protein synthesis
Experimental: CF1 male mice (~30 g) were implanted with 2×10^6 Ehrlich ascites tumor cells, intraperitoneally on Day 0. Compound I was suspended by homogenation in 0.05% polysorbate.80-water and administered intraperitoneally at 10 and 20 mg/kg for 9 days to determine its effectiveness for inhibition of tumor growth. Mice were sacrificed on Day 10, and the ascites fluid was collected from the peritoneal cavity. The volume and ascrit (packed cell volume) were determined for each animal and the percent inhibition of tumor growth was calculated. For the metabolic studies, mice were treated on Days 8 and 9 with 10 mg/kg of Compound I, intraperitoneally. The animal was sacrificed on Day 10 and the ascites fluid harvested. The in vitro metabolic studies were performed at […] final concentration of Compound I.
In vitro incorporation of ^3 H-thymidine, ^3 H-uridine, or ^3 H-leucine was determined using 10^6 Ehrlich ascites cells, 1 μCi labeled precursor, minimum essential medium and varying final concentrations of drug from 0.25-1.0 mM. The tubes were incubated at 37° C. for 60 min and inactivated by trichloroacetic acid. The acid insoluble labeled deoxyribonucleic acid was collected on GF/F glass filter discs and ribonucleic acid and protein were precipitated on nitrocellulose filters by vacuum suction. Results are expressed as dpm of incorporated precursor per hour per 10^6 cells.

[3] = system: CF1 male mice; assay: Antihyperlipidemic screen in normal mice; type: in vivo, mouse; details: for Serum Cholesterol / Serum Triglyceride: CF1 male mice I.P.
Experimental: Compounds to be tested were suspended in 1% carboxymethylcellulose-water and administered to CF1 male mice (~25 g) intraperitoneally for 16 days or Holtzman male rats (~350 g) orally by an intubation needle for 16 days. On days 9 or 16, blood was obtained by tail vein bleeding and the serum separated by centrifugation for 3 min. The serum cholesterol levels were determined by a modification of the Liebermann-Burchard reaction as described in Ness et al, Clin. Chim. Acta, 10, 229 (1964). Serum was also collected on day 16 and the triglyceride content was determined by a commercial kit, The Fisher Hycel Triglyceride Test Kit.
Data are expressed in the Table 2-7 as percent of control ± the standard deviation. The probable significant level (P) between each test group and the control group was determined by the Student's "t" test.

[4] = target: T1, Fatty Acid Synthetase (Mus musculus, UniProt P19096); assay: In vivo liver enzyme study: fatty acid synthetase; details: CF1 liver after 16 days i.p.
T1 construct: 10% homogenates of CF1 male mouse liver; from tissue; host or cells: CF1 male mouse liver, 10% homogenate
T1 sequence (P19096 whole entry): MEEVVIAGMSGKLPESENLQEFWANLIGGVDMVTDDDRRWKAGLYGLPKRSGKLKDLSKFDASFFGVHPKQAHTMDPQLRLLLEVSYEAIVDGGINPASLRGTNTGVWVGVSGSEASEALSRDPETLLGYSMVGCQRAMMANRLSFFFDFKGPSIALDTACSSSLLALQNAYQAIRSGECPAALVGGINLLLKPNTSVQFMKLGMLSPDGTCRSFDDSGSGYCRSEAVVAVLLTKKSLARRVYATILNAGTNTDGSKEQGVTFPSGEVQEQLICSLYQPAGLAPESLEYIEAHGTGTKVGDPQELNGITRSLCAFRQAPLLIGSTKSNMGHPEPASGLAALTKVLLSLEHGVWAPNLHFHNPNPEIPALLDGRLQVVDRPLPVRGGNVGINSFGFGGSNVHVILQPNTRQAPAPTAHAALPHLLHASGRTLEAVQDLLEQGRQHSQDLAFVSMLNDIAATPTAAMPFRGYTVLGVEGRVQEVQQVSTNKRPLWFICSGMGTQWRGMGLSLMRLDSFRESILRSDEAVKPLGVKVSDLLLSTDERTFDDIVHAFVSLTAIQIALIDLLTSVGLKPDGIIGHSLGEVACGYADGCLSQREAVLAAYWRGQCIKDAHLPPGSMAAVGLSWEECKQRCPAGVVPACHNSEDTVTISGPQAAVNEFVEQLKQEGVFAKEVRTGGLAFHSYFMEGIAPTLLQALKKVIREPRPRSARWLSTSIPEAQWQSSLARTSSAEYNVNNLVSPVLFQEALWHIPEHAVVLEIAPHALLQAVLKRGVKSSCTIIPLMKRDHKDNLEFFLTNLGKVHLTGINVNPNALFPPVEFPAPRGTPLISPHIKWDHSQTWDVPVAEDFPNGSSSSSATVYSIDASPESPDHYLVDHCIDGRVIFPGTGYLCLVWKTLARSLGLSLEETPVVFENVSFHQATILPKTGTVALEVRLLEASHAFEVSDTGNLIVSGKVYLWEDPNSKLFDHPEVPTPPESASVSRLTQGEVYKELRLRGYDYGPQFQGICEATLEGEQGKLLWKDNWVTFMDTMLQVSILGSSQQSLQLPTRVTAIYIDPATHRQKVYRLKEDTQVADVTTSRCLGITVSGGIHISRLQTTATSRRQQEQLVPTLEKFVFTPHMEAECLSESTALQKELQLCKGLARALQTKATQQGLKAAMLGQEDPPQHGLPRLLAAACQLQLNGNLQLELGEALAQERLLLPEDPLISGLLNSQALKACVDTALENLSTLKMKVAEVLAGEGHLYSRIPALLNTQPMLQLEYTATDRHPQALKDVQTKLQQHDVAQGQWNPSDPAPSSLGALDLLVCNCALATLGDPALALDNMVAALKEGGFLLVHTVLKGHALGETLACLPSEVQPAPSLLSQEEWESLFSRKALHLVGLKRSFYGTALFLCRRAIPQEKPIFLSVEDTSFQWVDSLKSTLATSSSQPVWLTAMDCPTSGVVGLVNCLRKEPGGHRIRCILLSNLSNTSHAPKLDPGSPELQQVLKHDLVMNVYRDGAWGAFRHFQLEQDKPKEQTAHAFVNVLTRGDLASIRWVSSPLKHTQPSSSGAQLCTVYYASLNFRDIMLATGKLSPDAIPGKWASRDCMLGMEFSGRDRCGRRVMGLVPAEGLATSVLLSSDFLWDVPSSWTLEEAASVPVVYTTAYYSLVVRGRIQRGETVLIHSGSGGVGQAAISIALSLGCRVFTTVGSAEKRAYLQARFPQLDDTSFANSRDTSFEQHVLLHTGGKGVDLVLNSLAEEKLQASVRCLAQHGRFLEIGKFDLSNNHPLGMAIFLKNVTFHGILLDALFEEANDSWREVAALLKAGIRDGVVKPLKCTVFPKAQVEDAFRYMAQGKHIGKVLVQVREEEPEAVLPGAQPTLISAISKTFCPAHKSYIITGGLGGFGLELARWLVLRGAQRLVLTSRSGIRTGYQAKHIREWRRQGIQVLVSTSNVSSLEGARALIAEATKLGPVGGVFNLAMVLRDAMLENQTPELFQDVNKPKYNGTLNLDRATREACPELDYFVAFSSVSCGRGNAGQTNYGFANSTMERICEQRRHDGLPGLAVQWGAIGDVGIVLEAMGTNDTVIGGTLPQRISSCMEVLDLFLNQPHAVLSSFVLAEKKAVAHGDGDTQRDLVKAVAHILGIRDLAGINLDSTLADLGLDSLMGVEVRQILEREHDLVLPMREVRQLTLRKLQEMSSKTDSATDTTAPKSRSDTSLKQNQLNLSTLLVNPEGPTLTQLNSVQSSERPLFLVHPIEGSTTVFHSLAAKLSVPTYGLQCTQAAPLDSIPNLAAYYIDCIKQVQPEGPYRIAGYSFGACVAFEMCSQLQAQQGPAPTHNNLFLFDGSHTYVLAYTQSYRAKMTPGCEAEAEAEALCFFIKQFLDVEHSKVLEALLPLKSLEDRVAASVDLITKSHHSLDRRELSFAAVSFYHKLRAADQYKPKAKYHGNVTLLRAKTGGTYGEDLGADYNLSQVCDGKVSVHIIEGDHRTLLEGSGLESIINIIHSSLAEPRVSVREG
Experimental: as §1

## {Cu[(CH3)3 N.BH2 CO2 ]2.(CH3)3 N.BH2 COOH} [Compound I]
[1]; 2.5 mg/kg
  Acetyl CoA synthetase: 62 ± 6% of control
[1]; 5.0 mg/kg
  Acetyl CoA synthetase: 77 ± 7% of control
[1]; 10 mg/kg
  Acetyl CoA synthetase: 73 ± 7% of control
[2]
  IC50: 863 µM
[3]; 2.5 mg/kg, Day 9
  Serum Cholesterol: 61 ± 5 % Control
[3]; 2.5 mg/kg, Day 16
  Serum Cholesterol: 62 ± 6 % Control
  Serum Triglyceride: 50 ± 6 % Control
[3]; 5.0 mg/kg, Day 9
  Serum Cholesterol: 67 ± 6 % Control
[3]; 5.0 mg/kg, Day 16
  Serum Cholesterol: 63 ± 5 % Control
  Serum Triglyceride: 69 ± 6 % Control
[3]; 10.0 mg/kg, Day 9
  Serum Cholesterol: 71 ± 6 % Control
[3]; 10.0 mg/kg, Day 16
  Serum Cholesterol: 63 ± 5 % Control
  Serum Triglyceride: 47 ± 5 % Control
[3]; 20.0 mg/kg, Day 9
  Serum Cholesterol: 52 ± 5 % Control
[3]; 20.0 mg/kg, Day 16
  Serum Cholesterol: 53 ± 4 % Control
[3]; mice, 2.5 mg/kg/day
  Serum triglyceride levels reduced: greater than 50%
[3]; mice, 10 mg/kg/day
  Serum triglyceride levels reduced: greater than 50%
  serum triglyceride reduction: 53%
[3]; mice, 20 mg/kg/day
  reduction of serum cholesterol (maximal effect): 47%
[4]; 2.5 mg/kg
  Fatty Acid Synthetase: 102 ± 7% of control
[4]; 5.0 mg/kg
  Fatty Acid Synthetase: 90 ± 6% of control
[4]; 10 mg/kg
  Fatty Acid Synthetase: 94 ± 5% of control
